Measured values as given in US9328093B2, “Selective inhibitors of ubiquitin specific protease 7, the pharmaceutical compositions thereof and their therapeutic applications” (HYBRIGENICS SA, priority 2010, dated 2016).

Assays:
[1] = test system: HCT116 colon cancer cells; test: HCT116 cell viability and proliferation assay (MTS); assay type: cell-based; conditions: Homo sapiens, HCT-116, 72 h, HCT116, 72 hours, read-out: Cell viability (MTS): HCT116 GI50 Day3
Protocol: HCT116 colon cancer cells were obtained from ATCC (American Type Culture Collection), and maintained in Mc Coy's 5A medium containing 10% FBS, 3 mM glutamine and 1% penicillin/streptomycin. Cells were incubated at 37° C. in a humidified atmosphere containing 5% CO2.
Cell viability was assayed using the MTS technique in 96-well culture plates (CellTiter 96® Aqueous Non-Radioactive Cell Proliferation Assay, Promega) according to the manufacturer's instructions. MTS (3-(4,5-dimethyl-thiazol-2-yl)-5-(3-carboxy-methoxyphenyl)-2-(4-sulfophenyl)-2H-tetra-zolium) is a MTT-derived tetrazolium that is reduced in metabolically active cells into a soluble, cell-permeant formazan. The amount of formazan, detected by its absorbance at 492 nm is proportional to the number of living, metabolically active cells.
10^3 HCT116 cells were seeded per well. 24 hours later, the medium was changed and the cells treated in triplicate with the concentrations of each compound from 100 μM to 50 nM. The compounds were diluted in 100% DMSO, whose final concentration on cells was kept at 0.5%.
Cells were incubated with the compounds for 72 hours, and their viability then assayed by the addition of MTS for 2 hours. Absorbance at 492 nm was measured directly from the 96-well culture plates. Gl50 (Growth Inhibition 50) concentrations for each compound were calculated using a sigmoidal variable slope fit (Prism 4.0, Graphpad Softwares). Values represent mean of three independent experiments.

[2] = biological target: T1, USP7 over a panel of active DUBs (Homo sapiens, UniProt Q93009); test: HA-Ub-VS labeling of active DUBs in HEK293 cell lysates; assay type: biochemical; conditions: different doses
Source text: (§1) The C-terminally modified vinyl sulfone derivative of ubiquitin, UbVS, was clearly helpful for a direct visualization of active DUBs in cells. This tool, which binds covalently to the cysteine active site of deubiquitinating enzymes, was successfully applied to discover and characterize novel ubiquitin/ubiquitin-like proteases and to profile active deubiquitinating enzymes in normal, virus-infected, and malignant cells (Borodovsky et al., Chem Biol 2002, 9, 1149-1159, Hemelaar et al., Mol Cell Biol 2004, 24, 84-95, Ovaa et al., Proc Natl Acad Sci USA 2004 101, 2253-2258).
The HA-Ub-VS probe (Hemagglutin tag-Ubiquitin-Vinyl Sulfone) was used in this study to directly visualize the activity of all deubiquitinating enzymes from cell lysates. […]
Inducible USP7 shRNA HCT116 cells (previously treated with or without Doxycycline (2 μg/ml) for 4 days) as well as HEK293 cells were harvested and lysed on ice with a non denaturating buffer containing Tris pH7.4, 50 mM; NaCl, 150 mM; MgCl2, 5 mM; EDTA, 0.5 mM; DTT, 2 mM; ATP, 2 mM; NP40, 0.5% and glycerol, 10%. […] Proteins were then quantified by Bradford method (Bio-Rad Protein Assay). […] Signals were detected by enhanced chemiluminescence (ECL; Amersham) according to the reagent manufacturer's instructions.

[3] = biological target: T1, USP7 over a panel of active DUBs; test: HA-Ub-VS labeling of active DUBs in HCT116 cell lysates; assay type: biochemical; parameters: endogenous in cells; host or cells: HCT116 (inducible USP7 shRNA line), non-denaturing lysate; conditions: for HA-Ub-VS-USP7 protein level: different doses (100 μM to 3 μM), 2 hours
Source text: as §1
The HA-Ub-VS probe (Hemagglutin tag-Ubiquitin-Vinyl Sulfone) was used in this study to directly visualize the activity of all deubiquitinating enzymes from cell lysates. This tool was used to evaluate the activity/specificity of our small molecule compounds on USP7 relative to all deubiquitinating enzymes active in physiological conditions.
Inducible USP7 shRNA HCT116 cells (previously treated with or without Doxycycline (2 μg/ml) for 4 days) as well as HEK293 cells were harvested and lysed on ice with a non denaturating buffer containing Tris pH7.4, 50 mM; NaCl, 150 mM; MgCl2, 5 mM; EDTA, 0.5 mM; DTT, 2 mM; ATP, 2 mM; NP40, 0.5% and glycerol, 10%. Samples were incubated at 4° C. for 1 hour and clarified. Proteins were then quantified by Bradford method (Bio-Rad Protein Assay). 25 μg of proteins from native cell lysates were treated with compounds of examples 14 and 5 (from 100 μM to 3 μM) or with NEM (N-Ethylmaleimide, a thiol-reactive compound, 5 mM) for 2 hours at room temperature. The ubiquitin labeling reaction was initiated by the addition of HA-Ub-VS (8 μg/ml) in labeling buffer (Tris pH7.6, 50 mM; MgCl2, 5 mM; EDTA, 0.5 mM; DTT, 2 mM; ATP, 2 mM; sucrose, 250 mM) and incubated at room temperature for 30 min. Samples were next heated at 100° C. for 10 minutes and briefly sonicated. They were resolved by SDS-polyacrylamide gel electrophoresis (SDS-PAGE), transferred to a nitrocellulose membrane and probed with antibodies against USP7 (Bethyl Lab, A300-034A), HA (BabCO, MMS-101P), and actin (Sigma, A2066). Horseradish peroxidase (HRP)-conjugated anti-mouse (Jackson Laboratories, 115-035-003) or HRP-conjugated anti-rabbit (Cell Signaling, 7074) antibodies were used as secondary antibodies. Signals were detected by enhanced chemiluminescence (ECL; Amersham) according to the reagent manufacturer's instructions.

T1 sequence (Q93009 whole entry): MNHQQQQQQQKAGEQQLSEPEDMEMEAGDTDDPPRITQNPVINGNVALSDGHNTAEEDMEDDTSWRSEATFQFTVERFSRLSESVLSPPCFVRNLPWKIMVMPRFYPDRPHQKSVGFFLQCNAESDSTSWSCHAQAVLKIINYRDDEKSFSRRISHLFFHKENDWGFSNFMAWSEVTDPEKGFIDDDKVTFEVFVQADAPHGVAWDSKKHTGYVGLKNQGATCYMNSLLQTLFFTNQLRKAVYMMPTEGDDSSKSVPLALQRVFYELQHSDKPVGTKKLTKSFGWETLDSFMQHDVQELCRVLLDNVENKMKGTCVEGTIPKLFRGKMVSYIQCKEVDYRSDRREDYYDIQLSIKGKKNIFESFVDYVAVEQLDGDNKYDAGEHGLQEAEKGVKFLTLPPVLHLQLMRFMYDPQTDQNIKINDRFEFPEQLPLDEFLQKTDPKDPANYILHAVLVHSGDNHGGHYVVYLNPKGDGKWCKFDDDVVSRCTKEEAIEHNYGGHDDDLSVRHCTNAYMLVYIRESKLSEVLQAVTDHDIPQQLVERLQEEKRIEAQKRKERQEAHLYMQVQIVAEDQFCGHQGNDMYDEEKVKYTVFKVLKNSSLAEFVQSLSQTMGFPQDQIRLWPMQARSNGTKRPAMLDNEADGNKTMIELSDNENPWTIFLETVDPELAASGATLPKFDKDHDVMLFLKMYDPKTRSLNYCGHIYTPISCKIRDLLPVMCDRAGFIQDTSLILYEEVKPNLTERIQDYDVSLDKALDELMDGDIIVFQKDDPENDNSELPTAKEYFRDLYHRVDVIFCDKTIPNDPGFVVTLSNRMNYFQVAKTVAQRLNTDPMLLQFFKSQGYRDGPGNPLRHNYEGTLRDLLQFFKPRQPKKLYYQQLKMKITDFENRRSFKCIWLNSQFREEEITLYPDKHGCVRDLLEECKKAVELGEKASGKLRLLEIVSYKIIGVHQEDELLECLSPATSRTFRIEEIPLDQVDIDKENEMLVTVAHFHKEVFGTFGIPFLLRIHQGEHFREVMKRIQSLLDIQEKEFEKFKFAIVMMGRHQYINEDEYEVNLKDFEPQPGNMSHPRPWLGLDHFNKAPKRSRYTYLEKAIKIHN

Row | Compound | GI50 [1] | HA-Ub-VS-USP7 protein level [2] | HA-Ub-VS-USP7 protein level [3] | HA-Ub-VS labeled DUB bands after treatment ([3]; fixed dose 50 μM, anti-HA immunoblot) | HA-Ub-VS labeling of the active form of DUBs ([3]; NEM 5 mM)
1 | CCN(CCCNC(=O)c1ccc2c(Cl)c3c(nc2c1)CCCC3)Cc1ccccc1 [Example 5, 9-Chloro-5,6,7,8-tetrahydro-acridine-3-carboxylic acid [3-(benzyl-ethyl-amino)-propyl]-amide] | 4 µM | also confirmed | specific and dose-dependent decrease | – | –
2 | CN(CCCNC(=O)c1ccc2c(Cl)c3c(nc2c1)CCCC3)Cc1ccccc1 [Example 14, 9-Chloro-5,6,7,8-tetrahydro-acridine-3-carboxylic acid [3-(benzyl-methyl-amino)-propyl]-amide] | 4.1 µM | also confirmed | specific and dose-dependent decrease | only one band was decreased | –
3 | CCN1C(=O)C=CC1=O [NEM, N-Ethylmaleimide, reference compound] | – | – | – | – | inhibited
